The text below walks through data of article PMC11785708, “Design and synthesis of new quinazolinone derivatives: investigation of antimicrobial and biofilm inhibition effects” (Molecular Diversity, 2024).

The structures appear in SMILES notation. Values after ≈ are worked out from the molar mass of the structure shown.

In data set [1] the test system is B. cereus ATCC 6629. The experiment in a line: MIC determination, B. cereus. It is filed as cell-based, Bacillus cereus. The note with it: Bacillus cereus, ATCC6629; serial dilutions, triplicate. As to the method:
(§1) Serial dilutions of the test compounds were tested to determine their MIC against the most susceptible organisms. The MIC was expressed as the lowest concentration which inhibited the visible growth of the corresponding microorganism. All assays were performed in triplicate.

Another data set in a line: Cell viability MTT assay. As to conditions: human, BJ1 cells (normal skin fibroblasts). In kind it is cell-based. As to the method:
Cell viability testing at 5 mg/ml was carried out by colorimetric MTT assay on human normal cell line BJ1 (skin fibroblasts) to investigate the toxicity of the most broad spectrum derivatives 9, 15, 16, 18, 19, 20 and 29 (Table 3). The viability of the cells treated with the aforementioned derivatives was more than 87% at 5 mg/ml concentration. This gives indication that the compounds are tolerated and nontoxic for human cells, as the cytotoxic dose was higher than the therapeutic dose on most of microorganisms. It is worth mentioning that the safe limit of the percent of dead cells is not an absolute value and could be more than 10% as reported in previous studies.
The most broad spectrum compounds were evaluated for their cytotoxic activity against BJ1 cell line using colorimetric MTT [3-(4,5-dimethylthiazol-2-yl)-2,5-diphenyltetrazolium bromide] assay.

Data set [2] deals with S. aureus ATCC 6538. Description: Agar well diffusion, S. aureus. In kind it is cell-based. The note with it: Staphylococcus aureus, ATCC6538; 100 μl of test compound 20 mg/ml in DMF; ciprofloxacin and fluconazole 30 μg/ml; 24 h; mean ± SD; read-out: diameters of inhibition zone, S. aureus ATCC 6538. How it is done: (§2) The antimicrobial activity was tested against Gram positive bacteria: Bacillus cereus (B. cereus ATCC 6629), Bacillus subtilis (B. subtilis ATCC 6633), Staphylococcus aureus (S. aureus ATCC 6538), Gram negative bacteria: Klebsiella pneumoniae (K. pneumoniae ATCC 13883), Pseudomonas aeruginosa (P. aeruginosa ATCC 27953) and Candida albicans (C. albicans ATCC 10231). Glycerol stocks were thawed upon need and propagated into nutrient broth at 37 °C. The antibacterial activity of the compounds 9-32 was carried out in vitro using the agar well diffusion method, originally reported by […] and Bauer and coworkers and described by the National Committee for Clinical Laboratory Standards (NCCLS). Bacterial strains, adjusted at […] (equivalent to 0.5 McFarland), were used to inoculate nutrient agar plates. 9-mm diameter wells were punched into the solidified nutrient agar plates using sterile cork borer and 100 μl samples of the test compounds, dissolved in dimethyl formamide (DMF) at 20 mg/ml concentrations, were added and allowed to diffuse at 4 °C for 2 h. Subsequently, the plates were incubated overnight in an upright position at 37 °C. DMF was used as a negative control while ciprofloxacin and fluconazole (30 μg/ml) served as positive controls. After 24 h incubation, the diameters of the growth inhibition zones were recorded in mm. Data was expressed as mean ± standard deviation of three replicates.

In data set [3] the test system is B. subtilis ATCC 6633. Description: Agar well diffusion, B. subtilis. It is filed as cell-based. As to conditions: Bacillus subtilis, ATCC6633; 100 μl of test compound 20 mg/ml in DMF; ciprofloxacin and fluconazole 30 μg/ml; 24 h; mean ± SD; read-out: diameters of inhibition zone, B. subtilis ATCC 6633. As to the method:
as §2

Data set [4] deals with C. albicans ATCC 10231. Description: Agar well diffusion, C. albicans. It is filed as cell-based. As to conditions: Candida albicans, ATCC10231; 100 μl of test compound 20 mg/ml in DMF; ciprofloxacin and fluconazole 30 μg/ml; 24 h; mean ± SD; read-out: diameters of inhibition zone, C. albicans ATCC 10231. How it is done:
as §2

In data set [5] the test system is B. subtilis ATCC 6633. Description: MIC determination, B. subtilis. In kind it is cell-based, Bacillus subtilis. As to conditions: Bacillus subtilis, ATCC6633; serial dilutions, triplicate. How it is done: as §1
In data set [6] the test system is B. cereus ATCC 6629. Description: Agar well diffusion, B. cereus. It is filed as cell-based. The note with it: Bacillus cereus, ATCC6629; 100 μl of test compound 20 mg/ml in DMF; ciprofloxacin and fluconazole 30 μg/ml; 24 h; mean ± SD; read-out: diameters of inhibition zone, B. cereus ATCC 6629. As to the method: as §2
For data set [7], the system named is K. pneumoniae ATCC 13883. Description: MIC determination, K. pneumoniae. In kind it is cell-based, Klebsiella pneumoniae. The note with it: Klebsiella pneumoniae, ATCC13883; serial dilutions, triplicate. How it is done:
as §1

The subject of data set [8] is S. aureus ATCC 6538. The experiment in a line: MIC determination, S. aureus. It is filed as cell-based, Staphylococcus aureus. The note with it: serial dilutions, triplicate; for MIC: Staphylococcus aureus, ATCC6538. How it is done:
as §1

Data set [9] deals with K. pneumoniae ATCC 13883. Description: Agar well diffusion, K. pneumoniae. In kind it is cell-based. As to conditions: Klebsiella pneumoniae, ATCC13883; 100 μl of test compound 20 mg/ml in DMF; ciprofloxacin and fluconazole 30 μg/ml; 24 h; mean ± SD; read-out: diameters of inhibition zone, K. pneumoniae ATCC 13883. As to the method:
as §2

Data set [10] concerns C. albicans ATCC 10231. The experiment in a line: MIC determination, C. albicans. In kind it is cell-based, Candida albicans. The note with it: serial dilutions, triplicate; for MIC: Candida albicans, ATCC10231. As to the method: as §1
The subject of data set [11] is P. aeruginosa ATCC 27953. The experiment in a line: Inhibition of exopolysaccharide (EPS) production. It is filed as cell-based, Pseudomonas aeruginosa. The note with it: means ± standard errors. As to the method: The inhibition of exopolysaccharide production by P. aeruginosa ATCC 27953 using quinazolinone derivatives was assessed according to total carbohydrate measurement.
P. aeruginosa’s biofilm was grown in the presence or absence of compounds (19, 20). Cells were incubated for 1 h with an equal volume of 5% (v/v) phenol and 5 × volume of concentrated sulfuric acid containing 0.2% (w/v) hydrazine sulphate then centrifuged at 10,000 g for 10 min (Z 326 K, HERMLE Labortechnik GmbH, Wehingen, Germany). The optical density of the supernatant was measured at 490 nm and the reduction in EPS was calculated as follows: EPSquantification%=OD490ofcontrol-OD490oftest/OD490ofcontrol×100

In data set [12] the test system is P. aeruginosa ATCC 27953. The experiment in a line: Agar well diffusion, P. aeruginosa. It is filed as cell-based. As to conditions: Pseudomonas aeruginosa, ATCC27953; 100 μl of test compound 20 mg/ml in DMF; ciprofloxacin and fluconazole 30 μg/ml; 24 h; mean ± SD; read-out: diameters of inhibition zone, P. aeruginosa ATCC 27953. As to the method:
as §2

The test system of data set [13] is P. aeruginosa ATCC 27953. Description: MIC determination, P. aeruginosa. The note with it: Pseudomonas aeruginosa, ATCC27953; serial dilutions, triplicate. In kind it is cell-based, Pseudomonas aeruginosa. How it is done:
as §1

As for `COc1ccc(C=Nn2c(CN3CCCC3)nc3ccccc3c2=O)cc1` [Compound 18, 3-[(4-Methoxybenzylidene)amino]-2-(pyrrolidin-1-ylmethyl)quinazolin-4(3H)-one], the melting point is 118 to 120 °C. The MIC in the data set with B. cereus ATCC 6629 [1] worked out at 2500 ± 290 µg/mL (≈ 6.9 mM). In the data set “Cell viability MTT assay”, this compound yielded a viability at 5 mg/ml of 87.2 ± 2.34%. Also, the zone of inhibition at 20000 µg/mL with S. aureus ATCC 6538 [2] was found to be 14 ± 0.21 mm. In addition, the zone of inhibition at 20000 µg/mL with B. subtilis ATCC 6633 [3] was 16 ± 0.31 mm. Moreover, in the data set on C. albicans ATCC 10231 [4], the zone of inhibition at 20000 µg/mL amounted to 13 ± 0.14 mm. In the data set with B. subtilis ATCC 6633 [5], this compound came in with an MIC of 1500 ± 290 µg/mL (≈ 4.14 mM). The zone of inhibition at 20000 µg/mL in the data set on B. cereus ATCC 6629 [6] worked out at 17 ± 0.3 mm. Besides, the MIC in the data set with K. pneumoniae ATCC 13883 [7] turned out to be 2000 µg/mL (≈ 5.52 mM). In addition, the minimum inhibitory concentration (MIC) in the data set on S. aureus ATCC 6538 [8] worked out at 2500 µg/mL (≈ 6.9 mM). Further, the zone of inhibition at 20000 µg/mL with K. pneumoniae ATCC 13883 [9] worked out at 18 ± 0.2 mm. The compound also displayed an MIC in the data set on C. albicans ATCC 10231 [10] of 10000 ± 290 µg/mL (≈ 27.6 mM).
As to `O=C(O)c1cn(C2CC2)c2cc(N3CCNCC3)c(F)cc2c1=O` [Ciprofloxacin, reference compound], the “% EPS inhibition” value in the data set on P. aeruginosa ATCC 27953 [11] (1/4 MIC) is on record as 1.46 ± 0.28%; with P. aeruginosa ATCC 27953 [11] (1 MIC), 8.98 ± 0.52%; with P. aeruginosa ATCC 27953 [11] (2 MIC) it was 16.54 ± 0.61%; in the data set with P. aeruginosa ATCC 27953 [11] (2 MIC, listed as ciprofloxacin) it was ~ 16%. Besides, the zone of inhibition at 20000 µg/mL with S. aureus ATCC 6538 [2] came out at 23 ± 0.15 mm; in the data set on P. aeruginosa ATCC 27953 [12], 35 ± 0.28 mm; with B. subtilis ATCC 6633 [3] it was 33 ± 0.2 mm; in the data set on B. cereus ATCC 6629 [6], 29 ± 0.18 mm; in the data set on K. pneumoniae ATCC 13883 [9], 26 ± 0.17 mm.
`O=c1c2ccccc2nc(CN2CCCC2)n1N=Cc1ccc(Cl)cc1` [Compound 16, 3-[(4-Chlorobenzylidene)amino]-2-(pyrrolidin-1-ylmethyl).quinazolin-4(3H)-one]: the melting point came to 138 °C. The compound also showed an MIC in the data set on B. cereus ATCC 6629 [1] of 2000 ± 140 µg/mL (≈ 5.45 mM). This compound also yielded a viability at 5 mg/ml in the data set “Cell viability MTT assay” of 93.5 ± 1.54%. The zone of inhibition at 20000 µg/mL with S. aureus ATCC 6538 [2] is 12 ± 0.08 mm. The zone of inhibition at 20000 µg/mL in the data set with P. aeruginosa ATCC 27953 [12] was 17 ± 0.26 mm. For the same compound, in the data set with C. albicans ATCC 10231 [4], the zone of inhibition at 20000 µg/mL amounted to 13 ± 0.29 mm. Further, the zone of inhibition at 20000 µg/mL with B. cereus ATCC 6629 [6] came to 13 ± 0.14 mm. This compound displayed an MIC in the data set with P. aeruginosa ATCC 27953 [13] of 1500 µg/mL (≈ 4.09 mM). In the data set with S. aureus ATCC 6538 [8], 500 µg/mL (≈ 1.36 mM) was the least that counted as inhibitory (MIC) and the “MIC, S. aureus ATCC 6538” value turned out to be 500 ± 0 µg/mL (≈ 1.36 mM). In the data set with C. albicans ATCC 10231 [10], this compound returned an MIC of 10000 ± 500 µg/mL (≈ 27.3 mM).
Consider `O=c1c2ccccc2nc(CN2CCCC2)n1N=Cc1ccccc1` [Compound 15, 3-(Benzylideneamino)-2-(pyrrolidin-1-ylmethyl)quinazolin-4(3H)-one], for which the melting point was 108 to 110 °C. The compound further came in with a viability at 5 mg/ml in the data set “Cell viability MTT assay” of 88.4 ± 0.91%. In addition, in the data set on S. aureus ATCC 6538 [2], the zone of inhibition at 20000 µg/mL was determined as 12 ± 0.26 mm. Moreover, the zone of inhibition at 20000 µg/mL with B. subtilis ATCC 6633 [3] was 10 ± 0.33 mm. For the same compound, in the data set on C. albicans ATCC 10231 [4], the zone of inhibition at 20000 µg/mL was 11 ± 0.11 mm. This compound also came in with an MIC against B. subtilis ATCC 6633 [5] of 2000 ± 290 µg/mL (≈ 6.02 mM). In the data set with K. pneumoniae ATCC 13883 [7], this compound displayed an MIC of 2000 µg/mL (≈ 6.02 mM). In the data set on S. aureus ATCC 6538 [8], this compound gave an MIC of 2000 ± 290 µg/mL (≈ 6.02 mM). Besides, the zone of inhibition at 20000 µg/mL with K. pneumoniae ATCC 13883 [9] is 13 ± 0.41 mm. In the data set on C. albicans ATCC 10231 [10], 5000 µg/mL (≈ 15 mM) was the least that counted as inhibitory (MIC) and the “MIC, C. albicans ATCC 10231” value was determined as 5000 ± 290 µg/mL (≈ 15 mM).
`COc1ccc(C=Nn2c(CN3CCOCC3)nc3ccccc3c2=O)cc1` [Compound 30, 3-[(4-Methoxylbenzylidene)amino]-2-(morpholinomethyl)quinazolin-4(3H)-one] came in with a melting point of 138 °C. For the same compound, the zone of inhibition at 20000 µg/mL in the data set on S. aureus ATCC 6538 [2] is 12 ± 0.12 mm. Further, the zone of inhibition at 20000 µg/mL with K. pneumoniae ATCC 13883 [9] amounted to 14 ± 0.15 mm.
